Assay results taken from patent US5912266A, “Beta2 integrin cell adhesion molecule inhibitors” (American Home Products Corporation, priority 1997, dated 1999).
Like-named read-outs stand apart in the source and are kept apart here.

Key:
[1] = MTT cytotoxicity assay, HL60 cells; type: cell-based; conditions: human, hl60 cells, HL60, 30 min., read-out: % Inhibition MTT Reduction
Excerpt: (§1) This experiment describes the affect of asperlin on cellular respiration (mitochondrial activity) by measuring the reduction of the tetrazolium salt MTT to formazan crystals (Moseman, et al). This assay served as a control to ensure that the decrease in the fluorescence observed in Example I, Table I, was not the result of the fluorescent dye leaking from the cells due to disruption of the cell membrane. To address this issue, the mitochondrial activity of β2 and β1 integrin expressing cells in the presence of asperlin was quantitated using a commercially available MTT cytotoxicity kit (Promega No. G4100).
(§2) HL60 and U937 cells were purchased from the American Type Culture Collection (ATCC) and maintained in RPMI 1640 culture media containing 10% heat inactivated fetal bovine serum (refer to Example I, materials). HL60 cells were used between passages 20 and 30. HL60 cells were stimulated by a four day exposure to DMSO, as described in Example I, materials. Falcon round bottom tissue culture plates (No. 3077) were used for the experiment. All remaining reagents were supplied in Promega's MTT cytotoxicity kit (Catalog No. G4100).
(§3) The assay procedure described in the Promega MTT kit was used with the following changes.
(§4) Asperlin was solubilized in 100% DMSO at a concentration of 50 mg/ml. The 50 mg/ml asperlin stock was diluted to 400 μg/ml with culture media containing 5% fetal bovine serum (FBS). This solution was further diluted to 80 and 20 μg/ml with culture media supplemented with 5% FBS plus 2% DMSO. 50 μl of the 20 and 80 μg/ml asperlin solutions were added to wells of a sterile, round bottom 96 well assay plate. Control wells received 50 μl of culture media containing 5% FBS plus 2% DMSO. Duplicate assay wells were prepared such that U937 and HL60 cells could be evaluated on the same plate. The cell density of β1 integrin expressing U937, and β2 integrin expressing HL60 cell cultures were determined using a hemacytometer.
(§5) Cells were harvested by centrifuging for 5 minutes at 1000 rpm, room temperature, in a Sorvall RT600 bench-top centrifuge. The HL60 cell pellet was resuspended in fresh culture media at a concentration of 5×10^6 cells/ml. The U937 cell pellet was resuspended in fresh culture media at a concentration of 2.5×10^6 cells/ml. 2.5×10^5 β2 integrin expressing HL60 cells, contained in 50 μl, were added to wells of the assay plate using a multichannel pipettor. In duplicate assay wells, 1.25×10^5 β1 integrin expressing U937 cells, contained in 50 μl, were added to wells of the assay plate using a multichannel pipettor. Assay plates were incubated for either 30 minutes, 60 minutes, or 4 hours in a 37° C. 5% CO2, humidified incubator.
(§6) At the appropriate time point, 15 μl of MTT reagent, supplied in the Promega assay kit, was added to each well using a multichannel pipettor. Assay plates were incubated in the 37° C. incubator, as just described, for two hours. The MTT reduction reaction was quenched, and the visible formazan crystals were solubilized by adding exactly 100 μl of Promega's solubilization buffer to each well. […] The optical density (OD) of each well of the assay plate was determined using a microtiter plate reader (Flow Labs) set at a wavelength of 580 nm with a correction wavelength of 630 nm.
(§7) Replicate sample ODs were average. The percentage of inhibition of cellular respiration (mitochondrial activity) by asperlin was quantitated by the following equation: […]

HL60 cells = experiment: MTT cytotoxicity assay, HL60 cells; type: cell-based; conditions: for Average Optical Density: HL60, 30 min.
Excerpt: as §1, §2, §3, §4, §5, §6, §7

CC(=O)OC1C=CC(=O)OC1C1OC1C [Asperlin, 6,7-Anhydro-2,3,8-trideoxy-D-galacto-oct-2-enoic acidδ-lactone 4-acetate]
cytotoxicity at 0.5 h ([1]; Asperlin 10 μg/mL): 8%
cytotoxicity at 0.5 h ([1]; Asperlin 40 μg/mL): 27%
Average Optical Density (HL60 cells; Asperlin 10 μg/mL): .819
Average Optical Density (HL60 cells; Asperlin 40 μg/mL): .649
Cytotoxicity (in words) (HL60 cells; β2 integrin expressing HL60 cells): not cytotoxic
